Test results from patent US20200181104A1, “SSAO INHIBITORS AND USES THEREOF” (METACRINE, INC., priority 2018, published 2020).
Counter-ions that a name gives are not always drawn.

Molecular target: T1, Recombinant Human SSAO/VAP-1/AOC3 (Homo sapiens, UniProt Q16853)
T1 construct: purchased R&D systems 3957-AO
T1 sequence (Q16853 1-763): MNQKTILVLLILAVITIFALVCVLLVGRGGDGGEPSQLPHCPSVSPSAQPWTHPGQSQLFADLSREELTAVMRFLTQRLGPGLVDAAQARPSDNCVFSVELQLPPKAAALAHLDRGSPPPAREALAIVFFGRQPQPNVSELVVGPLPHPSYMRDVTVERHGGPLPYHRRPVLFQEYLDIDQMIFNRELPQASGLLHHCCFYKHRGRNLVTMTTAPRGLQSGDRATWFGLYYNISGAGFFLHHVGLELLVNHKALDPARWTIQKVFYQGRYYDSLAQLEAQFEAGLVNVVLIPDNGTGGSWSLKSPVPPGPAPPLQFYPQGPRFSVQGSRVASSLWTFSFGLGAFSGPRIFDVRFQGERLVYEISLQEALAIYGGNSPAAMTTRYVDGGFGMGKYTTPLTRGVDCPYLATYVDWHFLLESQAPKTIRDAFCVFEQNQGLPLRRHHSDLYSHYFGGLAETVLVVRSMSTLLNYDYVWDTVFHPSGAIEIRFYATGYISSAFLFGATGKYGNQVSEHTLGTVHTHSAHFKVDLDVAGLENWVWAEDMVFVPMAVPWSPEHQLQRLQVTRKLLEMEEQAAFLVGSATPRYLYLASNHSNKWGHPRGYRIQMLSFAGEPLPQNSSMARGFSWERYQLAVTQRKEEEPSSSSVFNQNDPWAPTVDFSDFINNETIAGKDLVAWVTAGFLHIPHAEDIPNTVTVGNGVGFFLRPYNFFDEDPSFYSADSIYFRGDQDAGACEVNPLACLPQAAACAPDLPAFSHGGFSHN
Experiment: Human Semicarbazide-Sensitive Amine Oxidase (SSAO) Assay
Type: biochemical
Conditions: recombinant enzyme, 30 minutes preincubation at 37° C., benzylamine substrate, Amplex Ultra Red/HRP fluorescence
Procedure, shortened: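 IC50 from kinetic Amplex Ultra Red/HRP fluorescence (ex 544, em 590 nm, 30-120 min) after benzylamine addition. Beforehand, 6-10 compound dilutions were preincubated 30 min at 37 °C with recombinant human SSAO in 50 mM HEPES (enzyme working concentration 2.5 μg/ml).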

| SMILES | IC50 [µM] |
| --- | --- |
| NC/C(=C\F)COc1ccc(C23CCC(C(=O)N4C5CCC4COC5)(CC2)CC3)cc1 [Compound 2.67, (E)-(4-(4-((2-(aminomethyl)-3-fluoroallyl)oxy)phenyl)bicyclo [2.2.2]octan-1-yl)(3-oxa-8-azabicyclo[3.2.1]octan-8-yl)methanone] | ≤ 0.01 |
| NC/C(=C\F)COc1ccc(C23CCC(C(=O)NCc4ccccc4)(CC2)CC3)cc1 [Compound 2.80, (E)-4-(4-((2-(aminomethyl)-3-fluoroallyl)oxy)phenyl)-N-benzylbicyclo[2.2.2]octane-1-carboxamide] | ≤ 0.01 |
| Cc1n[nH]c(C)c1CNC(=O)C12CCC(c3ccc(OC/C(=C/F)CN)cc3)(CC1)CC2 [Compound 2.81, (E)-4-(4-((2-(aminomethyl)-3-fluoroallyl)oxy)phenyl)-N-((3,5-dimethyl-1H-pyrazol-4-yl)methyl)bicyclo[2.2.2]octane-1-carboxamide] | ≤ 0.01 |
| NC/C(=C\F)COc1ccc(C23CCC(C(=O)N4CC5(CCOCC5)C4)(CC2)CC3)cc1 [Compound 2.82, (E)-(4-(4-((2-(Aminomethyl)-3-fluoroallyl)oxy)phenyl)bicyclo[2.2.2]octan-1-yl)(7-oxa-2-azaspiro[3.5]nonan-2-yl)methanone Hydrochloride] | ≤ 0.01 |
| COCCCNC(=O)C12CCC(c3ccc(OC/C(=C/F)CN)cc3)(CC1)CC2 [Compound 2.83, (E)-4-(4-((2-(aminomethyl)-3-fluoroallyl)oxy)phenyl)-N-(3-methoxypropyl)bicyclo[2.2.2] octane-1-carboxamide] | ≤ 0.01 |
| NC/C(=C\F)COc1ccc(C23CCC(C(=O)NC4CC5CCC(C4)O5)(CC2)CC3)cc1 (stereo not shown) [Compound 2.84, (E)-4-(4-((2-(aminomethyl)-3-fluoroallyl)oxy)phenyl)-N-(8-oxabicyclo[3.2.1]octan-3-yl)bicyclo[2.2.2]octane-1-carboxamide] | ≤ 0.01 |
| NC/C(=C\F)COc1ccc(C23CCC(C(=O)N4CCC(OCCO)CC4)(CC2)CC3)cc1 [Compound 2.85, (E)-(4-(4-((2-(aminomethyl)-3-fluoroallyl)oxy)phenyl)bicyclo [2.2.2]octan-1-yl)(4-(2-hydroxyethoxy)piperidin-1-yl)methanone] | ≤ 0.01 |
| COCC1(NC(=O)C23CCC(c4ccc(OC/C(=C/F)CN)cc4)(CC2)CC3)CCOCC1 [Compound 2.86, (E)-4-(4-((2-(aminomethyl)-3-fluoroallyl)oxy)phenyl)-N-(4-(methoxymethyl)tetrahydro-2H-pyran-4-yl)bicyclo[2.2.2]octane-1-carboxamide] | ≤ 0.01 |
| CC1(NC(=O)C23CCC(c4ccc(OC/C(=C/F)CN)cc4)(CC2)CC3)CCOC1 (stereo not shown) [Compound 2.87, (E)-4-(4-((2-(aminomethyl)-3-fluoroallyl)oxy)phenyl)-N-(3-methyltetrahydrofuran-3-yl)bicyclo[2.2.2]octane-1-carboxamide] | ≤ 0.01 |
| CC(C)CNC(=O)C12CCC(c3ccc(OC/C(=C/F)CN)cc3)(CC1)CC2 [Compound 2.88, (E)-4-(4-((2-(aminomethyl)-3-fluoroallyl)oxy)phenyl)-N-isobutylbicyclo[2.2.2]octane-1-carboxamide] | ≤ 0.01 |
| CC(C)(O)CCNC(=O)C12CCC(c3ccc(OC/C(=C/F)CN)cc3)(CC1)CC2 [Compound 2.89, (E)-4-(4-((2-(aminomethyl)-3-fluoroallyl)oxy)phenyl)-N-(3-hydroxy-3-methylbutyl)bicyclo[2.2.2] octane-1-carboxamide] | ≤ 0.01 |
| COCCOC1CN(C(=O)C23CCC(c4ccc(OC/C(=C/F)CN)cc4)(CC2)CC3)C1 [Compound 2.90, (E)-(4-(4-((2-(aminomethyl)-3-fluoroallyl)oxy)phenyl)bicyclo [2.2.2]octan-1-yl)(3-(2-methoxyethoxy)azetidin-1-yl)methanone] | ≤ 0.01 |
| COC1CC(NC(=O)C23CCC(c4ccc(OC/C(=C/F)CN)cc4)(CC2)CC3)C1 (stereo not shown) [Compound 2.91, 4-(4-(((E)-2-(aminomethyl)-3-fluoroallyl)oxy)phenyl)-N-((1r,3r)-3-methoxycyclobutyl)bicyclo [2.2.2]octane-1-carboxamide] | ≤ 0.01 |
| COC1(CNC(=O)C23CCC(c4ccc(OC/C(=C/F)CN)cc4)(CC2)CC3)CCC1 [Compound 2.92, (E)-4-(4-((2-(aminomethyl)-3-fluoroallyl)oxy)phenyl)-N-((1-methoxycyclobutyl)methyl) bicyclo[2.2.2]octane-1-carboxamide] | ≤ 0.01 |
| NC/C(=C\F)COc1ccc(C23CCC(C(=O)NC45CC(O)(C4)C5)(CC2)CC3)cc1 [Compound 2.93, (E)-4-(4-((2-(aminomethyl)-3-fluoroallyl)oxy)phenyl)-N-(3-hydroxybicyclo[1.1.1]pentan-1-yl)bicyclo[2.2.2]octane-1-carboxamide] | ≤ 0.01 |
| NC/C(=C\F)COc1ccc(C23CCC(C(=O)N4CC(OC(F)(F)F)C4)(CC2)CC3)cc1 [Compound 2.94, (E)-(4-(4-((2-(aminomethyl)-3-fluoroallyl)oxy)phenyl)bicyclo [2.2.2]octan-1-yl)(3-(trifluoromethoxy)azetidin-1-yl)methanone] | ≤ 0.01 |

Other lines, results leading:

| IC50 [µM] | SMILES |
| --- | --- |
| ≤ 0.01 | CC1(NC(=O)C23CCC(c4ccc(OC/C(=C/F)CN)cc4)(CC2)CC3)CCCOC1 (stereo not shown) [Compound 2.65, (E)-4-(4-((2-(aminomethyl)-3-fluoroallyl)oxy)phenyl)-N-(3-methyltetrahydro-2H-pyran-3-yl)bicyclo[2.2.2]octane-1-carboxamide] |
| ≤ 0.01 | NC/C(=C\F)COc1ccc(C23CCC(C(=O)NCCC(=O)N4CCOCC4)(CC2)CC3)cc1 [Compound 2.68, (E)-4-(4-((2-(aminomethyl)-3-fluoroallyl)oxy)phenyl)-N-(3-morpholino-3-oxopropyl)bicyclo[2.2.2]octane-1-carboxamide] |
| ≤ 0.01 | NC/C(=C\F)COc1ccc(C23CCC(C(=O)NC4(c5ccccc5)CCOCC4)(CC2)CC3)cc1 [Compound 2.69, (E)-4-(4-((2-(aminomethyl)-3-fluoroallyl)oxy)phenyl)-N-(4-phenyltetrahydro-2H-pyran-4-yl)bicyclo[2.2.2]octane-1-carboxamide] |
| ≤ 0.01 | NC/C(=C\F)COc1ccc(C23CCC(C(=O)N4CC5CCC(C4)O5)(CC2)CC3)cc1 [Compound 2.71, (E)-(4-(4-((2-(aminomethyl)-3-fluoroallyl)oxy)phenyl)bicyclo [2.2.2]octan-1-yl)(8-oxa-3-azabicyclo[3.2.1]octan-3-yl)methanone] |
| ≤ 0.01 | NC/C(=C\F)COc1ccc(C23CCC(C(=O)NC4(CO)CCOCC4)(CC2)CC3)cc1 [Compound 2.72, (E)-4-(4-((2-(aminomethyl)-3-fluoroallyl)oxy)phenyl)-N-(4-(hydroxymethyl)tetrahydro-2H-pyran-4-yl)bicyclo[2.2.2]octane-1-carboxamide] |
| ≤ 0.01 | NC/C(=C\F)COc1ccc(C23CCC(C(=O)NC4(CO)CC4)(CC2)CC3)cc1 [Compound 2.73, (E)-4-(4-((2-(aminomethyl)-3-fluoroallyl)oxy)phenyl)-N-(1-(hydroxymethyl)cyclopropyl) bicyclo[2.2.2]octane-1-carboxamide] |
| ≤ 0.01 | NC/C(=C\F)COc1ccc(C23CCC(C(=O)NCC(F)(F)CO)(CC2)CC3)cc1 [Compound 2.74, (E)-4-(4-((2-(aminomethyl)-3-fluoroallyl)oxy)phenyl)-N-(2,2-difluoro-3-hydroxypropyl)bicyclo[2.2.2] octane-1-carboxamide] |
| ≤ 0.01 | NC/C(=C\F)COc1ccc(C23CCC(C(=O)NCCN4CCOCC4)(CC2)CC3)cc1 [Compound 2.75, (E)-4-(4-((2-(aminomethyl)-3-fluoroallyl)oxy)phenyl)-N-(2-morpholinoethyl)bicyclo[2.2.2] octane-1-carboxamide] |
| ≤ 0.01 | NC/C(=C\F)COc1ccc(C23CCC(C(=O)Nc4ncco4)(CC2)CC3)cc1 [Compound 2.76, (E)-4-(4-((2-(aminomethyl)-3-fluoroallyl)oxy)phenyl)-N-(oxazol-2-yl)bicyclo[2.2.2]octane-1-carboxamide] |
| ≤ 0.01 | CC(C)(CO)CNC(=O)C12CCC(c3ccc(OC/C(=C/F)CN)cc3)(CC1)CC2 [Compound 2.77, (E)-4-(4-((2-(aminomethyl)-3-fluoroallyl)oxy)phenyl)-N-(3-hydroxy-2,2-dimethylpropyl)bicyclo[2.2.2] octane-1-carboxamide] |
| ≤ 0.01 | NC/C(=C\F)COc1ccc(C23CCC(C(=O)N4CC[C@@H]4CO)(CC2)CC3)cc1 [Compound 2.78, (R,E)-(4-(4-((2-(aminomethyl)-3-fluoroallyl)oxy)phenyl)bicyclo [2.2.2]octan-1-yl)(2-(hydroxymethyl)azetidin-1-yl)methanone] |
| ≤ 0.01 | COCCN(C)C(=O)C12CCC(c3ccc(OC/C(=C/F)CN)cc3)(CC1)CC2 [Compound 2.79, (E)-4-(4-((2-(aminomethyl)-3-fluoroallyl)oxy)phenyl)-N-(2-methoxyethyl)-N-methylbicyclo[2.2.2]octane-1-carboxamide] |
